Test results as given in patent US9567347B2, “Use of small molecule inhibitors targeting the interaction between RAC GTPase and p67(phox)” (CHILDREN'S HOSPITAL MEDICAL CENTER, priority 2012, dated 2017).

Key:
[1] = system: dHL-60 cells; experiment: stability in culture over time, DCFDA ROS assay; type: cell-based, human; settings: 20 μM, 6 hr treatment window
Protocol: (A) Apoptosis analysis by FACS of HL-60 cells treated with compound or vehicle control for 2 hours prior to 7-AAD and Annexin V staining. (B) HL-60 cells from A were harvested and lysates were immunoblotted for levels of pPAK, and actin was used as a control for loading. (C) F-actin reorganization in freshly isolated fMLP-stimulated primary murine neutrophils was analyzed. […] Cells were exposed to a 10 μM dose of Phox-I1, Phox-I2, and Analog 13, and 200 nM nocodazole. (D) The effect of Phox-I on NOX4 mediated ROS production was tested in primary murine neutrophils transfected with a NOX4 expressing plasmid. 10 μM Phox-I1 was applied to the cells for 30 min prior to ROS assay by luminol chemiluminescence in the presence of HRP. The fMLP-stimulated ROS activity in the presence or absence of 10 uM Phox-I1 was measured in parallel. (E) The antioxidant abilities of these lead compounds were tested by prestimulating dHL-60 cells with fMLP for 30 minutes prior to treatment with Phox-I1 or Phox-I2. Levels of superoxide were analyzed by DCFDA assay and FACS. NAC, apocyanin, DPI, and NSC23766 treated cells served as controls. […]

[2] = system: undifferentiated HL-60 cells; experiment: apoptosis analysis by FACS (Annexin V / 7-AAD); type: cell-based, human; settings: 20 or 100 μM
Protocol: Cells (5×10^5) were harvested and processed for Annexin V/7AAD staining according to manufacturer's protocol (Becton Dickinson). Flow cytometry data were acquired on a FACS Canto bench-top flow cytometer (Becton Dickinson) and the cell cycle distributions were determined by […] using Flo-Jo software (Bosco et al (2010) Blood 115, 3320-3328, hereby incorporated by reference in its entirety). For ROS production assay, primary murine neutrophils or dHL60 cells were incubated with compound for 2 hours prior to addition of H2-DCFDA according to manufacturer's instructions (Molecular Probes). Cells were then stimulated with 10 μM fMLP (Sigma), 1 mM CaCl2, and 1.5 mM MgCl2 for 15 minutes prior to wash and FACS analysis for mean fluorescence intensity. Non-fMLP stimulated control values were subtracted from all samples before normalization to fMLP-stimulated, vehicle control treated sample in order to display percent ROS inhibition.
In order to determine potency and cytotoxicity of Phox-I1 and Phox-I2, the levels of apoptosis were assessed in undifferentiated HL-60 cells treated with 20 or 100 μM Phox-I1, Phox-I2, or NSC23766 by FACS analysis for Annexin V (FIG. 4A).

[3] = system: dHL-60 cells; experiment: DCFDA ROS assay after wash and recovery (affinity assay); type: cell-based, human; settings: 2 hr treatment, recovery 4 hr or 2 hr
Protocol: (A) Apoptosis analysis by FACS of HL-60 cells treated with compound or vehicle control for 2 hours prior to 7-AAD and Annexin V staining. (B) HL-60 cells from A were harvested and lysates were immunoblotted for levels of pPAK, and actin was used as a control for loading. (C) F-actin reorganization in freshly isolated fMLP-stimulated primary murine neutrophils was analyzed. […] Cells were exposed to a 10 μM dose of Phox-I1, Phox-I2, and Analog 13, and 200 nM nocodazole. (D) The effect of Phox-I on NOX4 mediated ROS production was tested in primary murine neutrophils transfected with a NOX4 expressing plasmid. 10 μM Phox-I1 was applied to the cells for 30 min prior to ROS assay by luminol chemiluminescence in the presence of HRP. The fMLP-stimulated ROS activity in the presence or absence of 10 uM Phox-I1 was measured in parallel. (E) The antioxidant abilities of these lead compounds were tested by prestimulating dHL-60 cells with fMLP for 30 minutes prior to treatment with Phox-I1 or Phox-I2. Levels of superoxide were analyzed by DCFDA assay and FACS. NAC, apocyanin, DPI, and NSC23766 treated cells served as controls. (F) For affinity assay, DMSO-differentiated HL-60 cells were treated with standard effective dose of indicated compound for 2 hours, washed, and allowed to recover in normal media for 4 hours or 2 hours prior to fMLP stimulation and DCFDA ROS production assay by FACS analysis. (G) For stability assay, DMSO-differentiated HL-60 cells were treated with 20 μM dose of compound for the indicated time period prior to fMLP stimulation and DCFDA ROS production assay by FACS analysis.
Next, a stability experiment was performed to determine the duration of effectiveness of the compound in suppressing neutrophils. To analyze the relative affinities of these compounds for the p67^phox target in cells, DCFDA ROS production assays were performed in dHL-60 cells treated with compound for 2 hr followed by wash and recovery for 4 hr or 2 hr in normal media prior to ROS production analysis.

[4] = biological target: T1, xanthine oxidase (Bos taurus, UniProt P80457); experiment: xanthine/xanthine oxidase assay; type: biochemical; settings: 10 μM, 30 min at room temperature
T1 construct: purchased Sigma Aldrich
Protocol: Chemiluminescence was measured using GloMax®-96 Microplate Luminometer (Promega) (Tarpey et al., (2004) Am J Physiol Regul Integr Comp Physiol 286: R431-R444, hereby incorporated by reference in its entirety). The generation of […] by the xanthine/xanthine oxidase was performed in PBS supplemented with xanthine oxidase (0.004 U), HRP (0.005 U·mL^−1) and L012, following the protocol described in Wind et al., (2010) Br J Pharmacol. 161, 885-898, hereby incorporated by reference in its entirety. The reaction was started by the addition of xanthine (0.5 mM).
To test if the inhibitors are specific for the NOX2 enzyme, a xanthine/xanthine oxidase assay was performed. Specifically, vehicle, NAC (10 mM), […] or Phox-I2 (10 μM) was added to the assay, and incubated for 30 min at room temperature. The results were calculated by taking superoxide production in the absence of inhibitors as 100 and value obtained with NAC, Pghox-I1 or Phox-I2 was expressed as relative %. The data shown in FIG. 6 represent those from three separate experiments.

[5] = system: fMLP-activated primary murine neutrophils; experiment: Nitroblue tetrazolium (NBT) assay; type: cell-based, mouse; settings: 10 μM, FIG. 3C
Protocol: Primary neutrophils from mouse bone marrow were subjected to fMLP stimulation in the presence or absence of various chemicals for 5 min. Cells were stained for NBT activity as previously described in the incorporated materials of Filippi et al. (2004) to reveal relative ROS production.
To complement the DCFDA based FACS analysis and the luminol chemiluminescence method, nitroblue tetrazolium (NBT) assays were performed in fMLP-activated primary murine neutrophils (FIG. 3C).
The NBT assay was performed in primary murine neutrophils to measure ROS neutrophil production. […] Each compound was used at 10 μM.

T1 sequence (P80457 2-1332 limits assumed): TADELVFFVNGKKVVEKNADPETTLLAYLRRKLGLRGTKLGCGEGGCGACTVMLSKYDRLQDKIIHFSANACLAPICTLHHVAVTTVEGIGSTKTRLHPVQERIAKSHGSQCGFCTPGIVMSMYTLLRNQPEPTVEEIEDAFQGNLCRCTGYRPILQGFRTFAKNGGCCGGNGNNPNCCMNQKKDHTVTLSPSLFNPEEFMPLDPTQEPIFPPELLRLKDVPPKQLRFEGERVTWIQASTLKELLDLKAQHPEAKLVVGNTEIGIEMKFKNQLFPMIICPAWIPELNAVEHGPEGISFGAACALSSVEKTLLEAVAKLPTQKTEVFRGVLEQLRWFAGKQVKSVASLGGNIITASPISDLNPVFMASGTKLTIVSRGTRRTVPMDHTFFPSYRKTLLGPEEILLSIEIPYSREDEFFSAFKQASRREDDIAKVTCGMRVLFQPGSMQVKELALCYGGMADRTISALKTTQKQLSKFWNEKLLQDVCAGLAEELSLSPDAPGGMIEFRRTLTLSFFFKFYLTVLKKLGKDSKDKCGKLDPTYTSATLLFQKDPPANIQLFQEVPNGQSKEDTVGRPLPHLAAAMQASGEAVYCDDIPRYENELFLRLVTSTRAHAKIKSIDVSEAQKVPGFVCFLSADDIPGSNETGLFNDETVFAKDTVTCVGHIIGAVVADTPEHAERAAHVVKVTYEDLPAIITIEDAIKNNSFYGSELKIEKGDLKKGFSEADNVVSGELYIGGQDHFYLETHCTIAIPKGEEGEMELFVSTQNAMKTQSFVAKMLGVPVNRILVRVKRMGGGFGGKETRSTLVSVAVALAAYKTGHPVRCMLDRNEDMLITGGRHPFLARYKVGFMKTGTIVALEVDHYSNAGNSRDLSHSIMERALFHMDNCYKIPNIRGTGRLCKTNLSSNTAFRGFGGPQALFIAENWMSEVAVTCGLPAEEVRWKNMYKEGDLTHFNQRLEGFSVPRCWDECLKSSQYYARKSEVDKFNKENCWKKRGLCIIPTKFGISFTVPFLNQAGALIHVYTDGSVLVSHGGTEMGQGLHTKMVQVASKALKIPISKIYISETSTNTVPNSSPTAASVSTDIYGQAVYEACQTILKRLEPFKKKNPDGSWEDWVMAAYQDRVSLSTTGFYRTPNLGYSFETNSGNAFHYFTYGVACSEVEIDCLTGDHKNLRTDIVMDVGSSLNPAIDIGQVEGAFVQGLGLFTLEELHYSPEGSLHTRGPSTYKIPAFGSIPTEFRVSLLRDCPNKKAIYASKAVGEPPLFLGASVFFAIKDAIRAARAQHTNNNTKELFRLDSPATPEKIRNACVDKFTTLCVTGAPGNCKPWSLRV

## COc1ccc2c(c1)C1C=C(c3ccccc3)NN1C(c1cccc([N+](=O)[O-])c1)O2 (stereo not shown) [Phox-I1]
[1]
  efficacy of ROS inhibition over time in culture: no significant change in efficacy
[2]
  cell apoptosis (Annexin V): no detectable effect on cell apoptosis
[3]
  ROS inhibition after wash: still evident
[4]
  xanthine oxidase-mediated ROS production: does not affect
[5]
  superoxide production (NBT): significant blockade of superoxide production

## O=[N+]([O-])c1cccc(C2Nc3ccc([N+](=O)[O-])cc3C3C=CCC32)c1 (stereo not shown) [Phox-I2]
[1]
  efficacy of ROS inhibition over time in culture: retained some efficacies
[2]
  cell apoptosis (Annexin V): no detectable effect on cell apoptosis
[3]
  ROS inhibition after wash: did not display effective ROS inhibition
[4]
  xanthine oxidase-mediated ROS production: does not affect
[5]
  superoxide production (NBT): heightened
